Like-named read-outs stand apart in the source and are kept apart here.
Assays:
[1] = system: SARS-CoV-2; assay: Cytopathic effect (CPE) suppression effect confirmation test using VeroE6/TMPRSS2 cells; format: cell-based
[2] = system: SARS-CoV-2; assay: Phase 2/3 study, Phase 2a Part: COVID-19 symptom score and exacerbation (Ordinal scale); format: in vivo, human; conditions: mild/moderate patients
Procedure: (§1) The 750/250 mg group received 750 mg on Day 1 as a loading dose and 250 mg on Days 2 to 5 as a maintenance dose.

[3] = system: SARS-CoV-2; format: in vivo, human; conditions: Phase 3 Part; for Time to resolution of five COVID-19 symptoms: Maximum value: +: includes censored data
Procedure: The primary endpoint of Phase 3 Part was the time to resolution of five COVID-19 symptoms in mild/moderate SARS-CoV-2-infected patients, and the efficacy was verified by evaluation of the five COVID-19 symptoms in four grades (0: none, 1: mild, 2: moderate, 3: severe) by the patients themselves.
as §1
The primary efficacy endpoint of Phase 3 Part for mild/moderate SARS-CoV-2-infected patients was the time to resolution of the five COVID-19 symptoms.
Existing symptoms that existed before the onset of COVID-19 and were determined by the subject to be worsening at the baseline (pre-administration test) time point had to be improved […] from the severity at the baseline time point. • Severity at baseline was “severe”→“moderate”, “mild”, or “none” • Severity at baseline was “moderate”→“mild”, or “none” • Severity at baseline was “mild”→[…] “none” • Existing symptoms that existed before the onset of COVID-19 and were determined by the subject not to be worsening at the baseline (pre-administration test) time point had to be maintained or improved from the severity at the baseline time point. • Severity at baseline was “severe”->“severe”, “moderate”, “mild”, or “none” • Severity at baseline was “moderate”->“moderate”, “mild”, or “none” • Severity at baseline was “mild”→“mild”, or “none” • Regarding symptoms other than the above, that is, symptoms that were not present before the onset of COVID-19 and developed at or after the baseline (pre-administration test) time point, such symptoms had to be eliminated. • Severity at baseline was “severe”, “moderate”, or “mild”→“none”
As the key secondary analysis of the primary endpoint, the same analysis as the primary analysis was performed for the population of the mild/moderate SARS-CoV-2-infected patients in the ITT population.

[4] = ITT, onset to randomization less than 72 hours, 375/125 mg group
[5] = mild/moderate patients, ITT population, 375/125 mg group
[6] = mild/moderate patients, ITT population, 750/250 mg group
[7] = mild/moderate patients, ITT, onset to randomization less than 72 hours, 375/125 mg group

Cn1cnc(Cn2c(=O)[nH]/c(=N\c3cc4cn(C)nc4cc3Cl)n(Cc3cc(F)c(F)cc3F)c2=O)n1 [(6E)-6-[(6-chloro-2-methyl-2H-indazol-5-yl)imino]-3-[(1-methyl-1H-1,2,4-triazol-3-yl)methyl]-1-[(2,4,5-trifluorophenyl)methyl]-1,3,5-triazinane-2,4-dione]
EC50 ([1]; Severe acute respiratory syndrome coronavirus 2, VeroE6/TMPRSS2, Alpha strain (QHN001)): 310 nM | EC50 ([1]; Severe acute respiratory syndrome coronavirus 2, VeroE6/TMPRSS2, Alpha strain (QHN002)): 460 nM | EC50 ([1]; Severe acute respiratory syndrome coronavirus 2, VeroE6/TMPRSS2, Alpha strain (QK002)): 330 nM | EC50 ([1]; Severe acute respiratory syndrome coronavirus 2, VeroE6/TMPRSS2, Beta strain (TY8-612)): 400 nM | EC50 ([1]; Severe acute respiratory syndrome coronavirus 2, VeroE6/TMPRSS2, Delta strain (TY11-927-P1)): 410 nM | EC50 ([1]; Severe acute respiratory syndrome coronavirus 2, VeroE6/TMPRSS2, Gamma strain (TY7-501)): 500 nM | EC50 ([1]; Severe acute respiratory syndrome coronavirus 2, VeroE6/TMPRSS2, Gamma strain (TY7-503)): 430 nM | EC50 ([1]; Severe acute respiratory syndrome coronavirus 2, VeroE6/TMPRSS2, Lambda strain (TY33-456)): 270 nM | EC50 ([1]; Severe acute respiratory syndrome coronavirus 2, VeroE6/TMPRSS2, Mu strain (TY26-717)): 430 nM | EC50 ([1]; Severe acute respiratory syndrome coronavirus 2, VeroE6/TMPRSS2, Omicron BA.1 strain (TY38-873)): 290 nM | EC50 ([1]; Severe acute respiratory syndrome coronavirus 2, VeroE6/TMPRSS2, Omicron BA.1.1 strain (TY38-871)): 360 nM | EC50 ([1]; Severe acute respiratory syndrome coronavirus 2, VeroE6/TMPRSS2, Omicron BA.2 strain (TY40-385)): 520 nM | EC50 ([1]; Severe acute respiratory syndrome coronavirus 2, VeroE6/TMPRSS2, Omicron BA.2.12.1 strain (TY41-721)): 240 nM | EC50 ([1]; Severe acute respiratory syndrome coronavirus 2, VeroE6/TMPRSS2, Omicron BA.2.75 strain (TY41-716)): 300 nM | EC50 ([1]; Severe acute respiratory syndrome coronavirus 2, VeroE6/TMPRSS2, Omicron BA.4 strain (TY41-703)): 220 nM | EC50 ([1]; Severe acute respiratory syndrome coronavirus 2, VeroE6/TMPRSS2, Omicron BA.5 strain (TY41-702)): 400 nM | EC50 ([1]; Severe acute respiratory syndrome coronavirus 2, VeroE6/TMPRSS2, Omicron BQ.1.1 strain (TY41-796)): 480 nM | EC50 ([1]; Severe acute respiratory syndrome coronavirus 2, VeroE6/TMPRSS2, Omicron XBB.1 strain (TY41-795)): 330 nM | EC50 ([1]; Severe acute respiratory syndrome coronavirus 2, VeroE6/TMPRSS2, Omicron XE strain (TY41-686)): 440 nM | EC50 ([1]; Severe acute respiratory syndrome coronavirus 2, VeroE6/TMPRSS2, Theta strain (TY28-444)): 290 nM | Exacerbation rate (Ordinal scale deteriorated to 3 or more for the first time) ([2]; 375/125 mg group): 0.0% | Number of exacerbations/number of cases to be analyzed ([2]; 375/125 mg group): 0/13 | Change from baseline in total score of 12 COVID-19 symptoms compared to placebo group ([2]; 375/125 mg group and 750/250 mg group, all time points on Day 2 and thereafter, FIG. 6): tendency for the total score of the twelve COVID-19 symptoms to numerically improve | Exacerbation rate (Ordinal scale deteriorated to 3 or more for the first time) ([2]; 750/250 mg group): 0.0% | Number of exacerbations/number of cases to be analyzed ([2]; 750/250 mg group): 0/12 | Time to resolution of the five symptoms of COVID-19 shortened as the median value compared with placebo group by ([3]; ITT population, 375/125 mg group): 10.6 h | Time to resolution of 12 COVID-19 symptoms reduced compared to placebo group by a median of [3, 4]: 34.0 h | Time to resolution of 14 COVID-19 symptoms reduced compared to placebo group by a median of [3, 4]: 44.1 h | Time to resolution of the five COVID-19 symptoms shortened as the median compared with placebo group by [3, 4]: 24.3 h | Time to resolution of the five symptoms of COVID-19, significance vs placebo ([3]; mild/moderate patients, ITT population): no significant difference was observed | Time to resolution of five COVID-19 symptoms: 25% point [3, 5]: 104.3, — hour | Time to resolution of five COVID-19 symptoms: Difference of RMST (vs placebo) [3, 5]: -5.6 h | Time to resolution of five COVID-19 symptoms: Difference of median value (vs placebo) [3, 5]: -10.6 h | Time to resolution of five COVID-19 symptoms: Kaplan-Meier median value [3, 5]: 189.7 h | Time to resolution of five COVID-19 symptoms: Minimum value [3, 5]: 2.4 h | Time to resolution of five COVID-19 symptoms: Number of events (value in parentheses) [3, 5]: (73.0) | Time to resolution of five COVID-19 symptoms: Restricted mean survival time during 21 days (RMST) [3, 5]: 254.4 h | Time to resolution of five COVID-19 symptoms: Number of events ([3]; mild/moderate patients, ITT population, 375/125 mg group, 582 cases analyzed): 425 | Time to resolution of five COVID-19 symptoms: Maximum value [3, 5]: 493.3 h | Time to resolution of five COVID-19 symptoms: 25% point [3, 6]: 99.2 h | Time to resolution of five COVID-19 symptoms: 75% point [3, 6]: 434.8 h | Time to resolution of five COVID-19 symptoms: Difference of RMST (vs placebo) [3, 6]: -14.9 h | Time to resolution of five COVID-19 symptoms: Difference of median value (vs placebo) [3, 6]: -23.0 h | Time to resolution of five COVID-19 symptoms: Kaplan-Meier median value [3, 6]: 177.3 h | Time to resolution of five COVID-19 symptoms: Minimum value [3, 6]: 9.4 h | Time to resolution of five COVID-19 symptoms: Number of events (value in parentheses) [3, 6]: (75.3) | Time to resolution of five COVID-19 symptoms: Restricted mean survival time during 21 days (RMST) [3, 6]: 245.1 h | Time to resolution of five COVID-19 symptoms: Number of events ([3]; mild/moderate patients, ITT population, 750/250 mg group, 575 cases analyzed): 433 | Time to resolution of five COVID-19 symptoms: Maximum value [3, 6]: 493.1 h | Time to resolution of 12 COVID-19 symptoms: 25% point [3, 7]: 105.6, — hour | Time to resolution of 12 COVID-19 symptoms: Difference of RMST (vs placebo) [3, 7]: -16.9 h | Time to resolution of 12 COVID-19 symptoms: Difference of median value (vs placebo) [3, 7]: -34.0 h | Time to resolution of 12 COVID-19 symptoms: Kaplan-Meier median value [3, 7]: 179.2 h | Time to resolution of 12 COVID-19 symptoms: Minimum value [3, 7]: 2.4 h | Time to resolution of 12 COVID-19 symptoms: Number of events (value in parentheses) [3, 7]: (72.6) | Time to resolution of 12 COVID-19 symptoms: Restricted mean survival time during 21 days (RMST) [3, 7]: 253.9 h | Time to resolution of 14 COVID-19 symptoms: 25% point [3, 7]: 105.6, — hour | Time to resolution of 14 COVID-19 symptoms: Difference of RMST (vs placebo) [3, 7]: -20.1 h | Time to resolution of 14 COVID-19 symptoms: Difference of median value (vs placebo) [3, 7]: -44.1 h

Source: patent publication US20250099474A1 (priority 2022, published 2025)
